Legend:
[1] = test system: SREBP-1c; assay: SREBP-1c expression under high-glucose/high-insulin exposure, primary hepatocytes (western blot); assay type: cell-based, mouse; conditions: 0.3-10 μM ligand
Protocol: Liver cells were collected from male C57BL/6 mice (Central Lab. Animal Inc., Seoul) according to a method by Seglen et al. (Exp Cell Res., 82, pp 391-398, 1973). Each C57BL/6 mouse was anesthetized and then the abdomen thereof was incised. Subsequently, the hepatic portal vein was intubated and a gas mixture of 5% CO2 and 95% O2 was insufflated thereinto. A Ca^2+ and Mg^2+-free Hank's balanced salt solution at 37° C. was flowed into the tube to remove blood in the liver. Subsequently, a 0.1% collagenase type IV (Sigma, US) solution was flowed thereinto. The liver tissue was removed from the body, and then prepared into a hepatocyte suspension. The prepared hepatocyte suspension was centrifuged at 50×g for two minutes. […]
(§1) Sodium dodecyl sulfate-polyacrylamide gel electrophoresis (SDS-PAGE) was carried out by means of a gel electrophoresis device (Mighty Small SE 250, Hoefer Scientific Instruments, San Francisco) according to a method by Laemmli (UK, Nature 227, 680-685, 1970). […] Whether total protein contents in samples are the same is determined using anti-β-actin and anti-LaminA/C antibodies. Changes in protein expression amounts were determined by measuring the intensities of chemiluminescence signals on the blot by means of densitometry. […] Each lane was calculated using AlphaEase™ version 5.5 software and background intensity was removed from the calculated values. […]

[2] = test system: FAS; assay: FAS expression under high-glucose/high-insulin exposure, HepG2 (western blot); assay type: cell-based, human
Protocol: (§2) A 6-well plate was inoculated with HepG2 (ATCC, US), as a human hepatocyte line, and cultured until confluence in a DMEM medium containing 1% penicillin-streptomycin (Hyclone, US) and 10% fetal bovine serum (Hyclone, US) in a 5% CO2 incubator at 37° C. The medium containing 10% fetal bovine serum of the hepatocyte line grown to confluence was replaced by a medium not containing FBS. The cell line was additionally cultured for 18 hours and used as a sample for an experiment.
as §1

[3] = test system: non-alcoholic steatohepatitis (NASH) animal models induced by methionine-choline deficient diet; assay: NASH animal model induced by methionine-choline deficient diet; assay type: in vivo, C57BL/6J mice; conditions: MCD diet 4 weeks, 10 and 30 mg/kg oral
Source text: A liver fibrosis-inducing diet in the present invention is a methionine and choline-deficient (MCD) diet. Six-week-old male C57BL/6J mice (Central Lab. Animal Inc., Seoul, Korea) were acclimated to an experimental environment for one week while being fed solid food, and then randomly divided into a control group and an experimental group for the MCD diet using a randomized block design. The animal groups were fed for 4 weeks, and thus, liver fibrosis animal models were established. Liver fibrosis development was determined according to blood biochemical and histochemical analysis methods. The mice were orally fed once a day for five days every week with a GPR119 ligand (10 mg/kg and 30 mg/kg), which was suspended in 40% PEG400, in combination with the MCD diet. After terminating the experiment, the experimental animals fasted for 12 hours or more. Subsequently, blood and liver samples were collected from the animals, which had been anesthetized with diethyl ether, and then washed with a 0.1 M phosphate buffered saline (pH 7.4), followed by being weighed. […] Serum Lactate dehydrogenase (LDH) from the experimental animals raised for 4 weeks was measured as follows. The serum LDH was measured using a commercially available measurement kit (Bio Clinical system). […] Steatosis, ballooning, and lobular inflammation were blindly assessed by pathologists.

[4] = test system: SREBP-1c; assay: SREBP-1c expression under high-glucose/high-insulin exposure, HepG2 (western blot); assay type: cell-based, human; conditions: 30 mM glucose, 200 nM insulin 24 hours, 1-3 μM ligand
Protocol: as §2, §1

CCc1cnc(N2CCC(c3nc(COc4ccc(-n5cnnn5)cc4)cs3)CC2)nc1 [MBX2982, 4-((4-(1H-tetrazol-1-yl)phenoxy)methyl)-2-(1-(5-ethylpyrimidin-2-yl)piperidin-4-yl)thiazole]
SREBP-1c and nuclear (active-type) SREBP-1C expression increased by high-glucose/high-insulin [1]: completely inhibited | FAS expression increased by high-glucose/high-insulin [2]: inhibited | lobular inflammation (NAFLD activity score) [3]: inhibited | other markers (steatosis, ballooning, serum LDH) [3]: did not show significant changes | SREBP-1c and nuclear (active-type) SREBP-1C expression increased by high-glucose/high-insulin [4]: completely inhibited

Reference: patent publication US20190008864A1, “PHARMACEUTICAL COMPOSITION CONTAINING GPR119 LIGAND AS EFFECTIVE INGREDIENT FOR PREVENTING OR TREATING NON-ALCOHOLIC STEATOHEPATITIS” (PHARMEDIX.CO., LTD., priority 2014, published 2019)
